# Results published in patent publication US20240398771A1, “TREATMENT OF SCLERODERMA AND RAYNAUD'S SYNDROME” (Aisa Pharma, Inc., priority 2023, published 2024).
# Test system: participants with SSc-RP
# Assay: Average duration of weekly RP attacks, all attacks (minutes)
# Type: in vivo, human
# Conditions: Excluding Outliers, ITT Population - Part A (Table B-6)
# Description: The relevant metrics measured by this tool daily are: • Study medication • SSc-RP symptoms (Reporting an attack including duration of attack) • Severity of the attack considering all symptoms of the attack e.g. tingling, numbness, pain, color changes (VAS 0-10 cm scale) • Participant's location at the time of the attack (inside home/outside home) • Selecting symptoms experienced during the attack (tingling, numbness, pain, color changes, other) • Pain rating during the attack (11-point Likert scale) • The RCS based on how much difficulty participants had with Raynaud's today, how many attacks the participant had, and how long they lasted. Participants will also be asked to consider how much pain, numbness, or other symptoms the Raynaud's caused in fingers (including painful sores), and how much the Raynaud's alone affected the use of hands today (VAS 0-10 cm scale).
# The absolute change in average duration of weekly RP attacks from baseline to the end of each dosing period was and will be a secondary outcome variable. The sponsor-developed participant-informed diary was and will be used to record data. Average duration of weekly RP attacks is defined as the total duration of RP attacks divided by total number of RP attacks within the last 7 days of each dosing period. Total duration of RP attacks during the last 7 days of screening period divided by the total number of RP attacks will be used as baseline for the analysis of all periods. The variable will be calculated similar to frequency data as before.
# [1] = last 7 days of dosing period, listed as Cilnidipine 10 mg
# [2] = last 7 days of dosing period, listed as Cilnidipine 20 mg
# [3] = last 7 days of dosing period, listed as Pooled Cilnidipine
# [4] = last 7 days of screening period, listed as Cilnidipine 10 mg
# [5] = last 7 days of screening period, listed as Cilnidipine 20 mg
# [6] = last 7 days of screening period, listed as Pooled Cilnidipine
structure (smiles),measurement,setting,value
"COCCOC(=O)C1=C(C)NC(C)=C(C(=O)OC/C=C/c2ccccc2)C1c1cccc([N+](=O)[O-])c1 (stereo not drawn) [Cilnidipine, 1,4-dihydro-2,6-dimethyl,4-(3-nitrophenyl)-3,5-pyridinedicarboxylic acid 2-methoxyethyl (2 E)-3-phenyl-2-propenyl ester]","Average Duration of weekly RP attacks (All Attacks), Max",[1],"31.5, 31.5 minutes"
same,"Average Duration of weekly RP attacks (All Attacks), Min",[1],"31.5, 31.5 minutes"
same,"Average duration of weekly RP attacks (All Attacks), Change from Baseline, Max",[1],"−8.5, −8.5 minutes"
same,"Average duration of weekly RP attacks (All Attacks), Change from Baseline, Min",[1],"−8.5, −8.5 minutes"
same,"Average duration of weekly RP attacks (All Attacks), Change from Baseline, Q1",[1],"−8.48, −8.48 minutes"
same,"Average duration of weekly RP attacks (All Attacks), Change from Baseline, Q3",[1],"−8.48, −8.48 minutes"
same,"Average duration of weekly RP attacks (All Attacks), Percent Change from Baseline, Max",[1],"−21.2, −21.2%"
same,Average Duration of weekly RP attacks (All Attacks),[2],3.0 min
same,"Average Duration of weekly RP attacks (All Attacks), Max",[2],30.5 min
same,"Average Duration of weekly RP attacks (All Attacks), Q1",[2],3.00 min
same,"Average duration of weekly RP attacks (All Attacks), Change from Baseline",[2],-7.6 min
same,"Average duration of weekly RP attacks (All Attacks), Change from Baseline, Max",[2],5.5 min
same,"Average duration of weekly RP attacks (All Attacks), Change from Baseline, Q3",[2],5.45 min
same,"Average duration of weekly RP attacks (All Attacks), Percent Change from Baseline, Max",[2],21.8%
same,"Average duration of weekly RP attacks (All Attacks), Percent Change from Baseline, Min",[2],−71.8%
same,"Average duration of weekly RP attacks (All Attacks), Percent Change from Baseline, Q1",[2],−71.76%
same,"Average duration of weekly RP attacks (All Attacks), Percent Change from Baseline, Q3",[2],21.82%
same,Average Duration of weekly RP attacks (All Attacks),[3],3.0 min
same,"Average Duration of weekly RP attacks (All Attacks), Max",[3],31.5 min
same,"Average Duration of weekly RP attacks (All Attacks), Q1",[3],3.00 min
same,"Average duration of weekly RP attacks (All Attacks), Change from Baseline",[3],-8.5 min
same,"Average duration of weekly RP attacks (All Attacks), Change from Baseline, Max",[3],5.5 min
same,"Average duration of weekly RP attacks (All Attacks), Change from Baseline, Q1",[3],-8.48 min
same,"Average duration of weekly RP attacks (All Attacks), Change from Baseline, Q3",[3],5.45 min
same,"Average duration of weekly RP attacks (All Attacks), Percent Change from Baseline, Max",[3],21.8%
same,"Average duration of weekly RP attacks (All Attacks), Percent Change from Baseline, Min",[3],−71.8%
same,"Average duration of weekly RP attacks (All Attacks), Percent Change from Baseline, Q1",[3],−71.76%
same,"Average duration of weekly RP attacks (All Attacks), Percent Change from Baseline, Q3",[3],21.82%
same,"Average duration of weekly RP attacks (All Attacks), Baseline, Max",[4],"40.0, 40.0 minutes"
same,"Average duration of weekly RP attacks (All Attacks), Baseline, Min",[4],"40.0, 40.0 minutes"
same,"Average duration of weekly RP attacks (All Attacks), Baseline, Q1",[4],"40.00, 40.00 minutes"
same,"Average duration of weekly RP attacks (All Attacks), Baseline, Q3",[4],"40.00, 40.00 minutes"
same,"Average duration of weekly RP attacks (All Attacks), Baseline",[5],10.6 min
same,"Average duration of weekly RP attacks (All Attacks), Baseline, Max",[5],25.0 min
same,"Average duration of weekly RP attacks (All Attacks), Baseline, Q1",[5],10.63 min
same,"Average duration of weekly RP attacks (All Attacks), Baseline, Q3",[5],25.00 min
same,"Average duration of weekly RP attacks (All Attacks), Baseline",[6],10.6 min
same,"Average duration of weekly RP attacks (All Attacks), Baseline, Max",[6],40.0 min
same,"Average duration of weekly RP attacks (All Attacks), Baseline, Mean",[6],25.21 min
same,"Average duration of weekly RP attacks (All Attacks), Baseline, Median",[6],25.00 min
same,"Average duration of weekly RP attacks (All Attacks), Baseline, Q1",[6],10.63 min
same,"Average duration of weekly RP attacks (All Attacks), Baseline, Q3",[6],40.00 min
